Counter-ions that a name gives are not always drawn.
Columns and labels:
[1] = biological target: T1, HCV polymerase (NS5B) type 1b (Hepatitis C virus genotype 1b, UniProt P26663); test: Assay of enzyme (HCV polymerase) inhibitory activity, type 1b enzyme; type: biochemical, HCV BK strain (type 1b)
T1 construct: a region encoding NS5B (J Virol 1991 March, 65(3), 1105-13, 544 amino acids after deletion of 47 amino acids on the C-terminal); 6xHis (C); made in house; host or cells: Escherichia coli
Procedure, shortened: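 Polymerase activity was followed as radiolabelled UTP incorporation by E. coli-expressed, His-tagged NS5B of HCV type 1b lacking its last 47 residues. Conditions: 2 μM UTP, 50 μM other NTPs, Mg2+ buffer at pH 7.5, 25 °C for 60 min. Inhibition relative to compound-free reactions gave IC50.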

[2] = biological target: T2, HCV polymerase (NS5B) type 1a (Hepatitis C virus genotype 1a, UniProt P26664); test: Assay of enzyme (HCV polymerase) inhibitory activity, type 1a enzyme; type: biochemical, HCV type 1a (cloned from the blood of patients)
T2 construct: made in house; host or cells: Escherichia coli (by the 'similar method' of the 1b enzyme)
Procedure, shortened: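 IC50 values derive from radioactivity of newly synthesized RNA with versus without test compound. The enzyme was C-terminally truncated type 1a NS5B, 1.5 μg/ml, run 60 min at 25° C with 3H-UTP-labelled nucleotides.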

[3] = HCV polymerase inhibitory activity (IC50), 1b, type 1b enzyme 0.5 μg/ml, 25° C., 60 min
[4] = HCV polymerase inhibitory activity (IC50), 1a, type 1a enzyme 1.5 μg/ml, 25° C., 60 min
[5] = HCV polymerase inhibitory activity IC50, 1b, type 1b enzyme
[6] = HCV polymerase inhibitory activity IC50, 1a, type 1a enzyme

| Structure (SMILES) | IC50 [1, 3] [nM] | IC50 [2, 4] [nM] | IC50 [1, 5] [nM] | IC50 [2, 6] [nM] |
| --- | --- | --- | --- | --- |
| CCC(F)(F)c1ccc(CNC(=O)[C@H]2CN(C(=O)Nc3nccs3)CCN2S(=O)(=O)c2ccc(OC(F)(F)F)cc2)cc1 [Example 554, (R)-4-(4-trifluoromethoxy-benzenesulfonyl)-piperazine-1,3-dicarboxylic acid 3-[4-(1,1-difluoro-propyl)-benzylamide] 1-thiazol-2-ylamide] | < 100 | 100 to 1000 |  |  |
| CCCN1CCC(CNC(=O)[C@H]2CN(C(C)=O)CCN2S(=O)(=O)c2ccc(OC(F)(F)F)cc2)CC1 [Example 681, (R)-4-acetyl-1-(4-trifluoromethoxy-benzenesulfonyl)-piperazine-2-carboxylic acid (1-propyl-piperidin-4-ylmethyl)-amide] |  |  | > 1000 | > 1000 |
| CC(C)(C)c1ccc(CNC(=O)[C@H]2CN(c3nc(CO)c(C(=O)O)s3)CCN2S(=O)(=O)c2ccc(OC(F)(F)F)cc2)cc1 [Example 603, 2-[(R)-3-(4-tert-butyl-benzylcarbamoyl)-4-(4-trifluoromethoxy-benzenesulfonyl)-piperazin-1-yl]-4-hydroxymethyl-thiazole-5-carboxylic acid] | 100 to 1000 | 100 to 1000 |  |  |
| Cc1nc(N2CCN(S(=O)(=O)c3ccc(OC(F)(F)F)cc3)[C@@H](C(=O)NCc3ccc(C(C)C)cc3)C2)sc1C(=O)N(C)C [Example 355, (R)-4-(5-dimethylcarbamoyl-4-methyl-thiazol-2-yl)-1-(4-trifluoromethoxy-benzenesulfonyl)-piperazine-2-carboxylic acid 4-isopropyl-benzylamide] | < 100 | < 100 |  |  |
| CCCN1CC=C(CNC(=O)[C@H]2CN(c3cnc4cncnc4n3)CCN2S(=O)(=O)c2ccc(OC(F)(F)F)cc2)CC1 [Example 662, (R)-4-pteridin-7-yl-1-(4-trifluoromethoxy-benzenesulfonyl)-piperazine-2-carboxylic acid (1-propyl-1,2,3,6-tetrahydro-pyridin-4-ylmethyl)-amide] |  |  | 100 to 1000 | > 1000 |
| CN(C)c1ccc(CNC(=O)[C@H]2CNCCN2S(=O)(=O)c2ccc(C(F)(F)F)cc2)cc1 [Example 209, (R)-1-(4-trifluoromethyl-benzenesulfonyl)-piperazine-2-carboxylic acid 4-dimethylamino-benzylamide dihydrochloride] | > 1000 | > 1000 |  |  |
| CC(C)c1ccc(CNC(=O)[C@H]2CN(c3cnc(N)cn3)CCN2S(=O)(=O)c2ccc(C(F)(F)F)cc2)cc1 [Example 471, (R)-5′-amino-4-(4-trifluoromethyl-benzenesulfonyl)-3,4,5,6-tetrahydro-2H-[1,2′]bipyrazinyl-3-carboxylic acid 4-isopropyl-benzylamide] | < 100 | 100 to 1000 |  |  |
| CCCc1ccc(CNC(=O)[C@H]2CN(c3nc(CO)c(CO)s3)CCN2S(=O)(=O)c2ccc(OC(F)(F)F)cc2)cc1 [Example 562, (R)-4-(4,5-bis-hydroxymethyl-thiazol-2-yl)-1-(4-trifluoromethoxy-benzenesulfonyl)-piperazine-2-carboxylic acid 4-propyl-benzylamide] | < 100 | < 100 |  |  |
| CCC(F)(F)c1ccc(CNC(=O)[C@H]2CN(c3cnc4cnccc4n3)CCN2S(=O)(=O)c2ccc(N3CCOCC3)cc2)cc1 [Example 746, (R)-1-(4-morpholin-4-yl-benzenesulfonyl)-4-pyrido[3,4-b]pyrazin-2-yl-piperazine-2-carboxylic acid 4-(1,1-difluoro-propyl)-benzylamide] |  |  | < 100 | < 100 |
| CC(=O)N1CCN(S(=O)(=O)c2ccc(C(C)C)cc2)[C@@H](C(=O)NCCCN2CCOCC2)C1 [Example 404, (R)-4-acetyl-1-(4-isopropyl-benzenesulfonyl)-piperazine-2-carboxylic acid (3-morpholin-4-yl-propyl)-amide] | > 1000 | > 1000 |  |  |
| CC(C)(O)c1nc(N)c2sc(N3CCN(S(=O)(=O)c4ccc(OC(F)(F)F)cc4)[C@@H](C(=O)NCc4ccc(OC(F)(F)F)cc4)C3)nc2n1 [Example 1091, (R)-4-[7-amino-5-(1-hydroxy-1-methyl-ethyl)-thiazolo[4,5-d]pyrimidin-2-yl]-1-(4-trifluoromethoxy-benzenesulfonyl)-piperazine-2-carboxylic acid 4-trifluoromethoxy-benzylamide] |  |  | < 100 | < 100 |
| CC(=O)N1CCN(S(=O)(=O)c2ccc3ccccc3c2)C(C(=O)NCc2ccc(C(F)(F)F)cc2)C1 (stereo not drawn) [Example 164, 4-acetyl-1-(naphthalene-2-sulfonyl)-piperazine-2-carboxylic acid 4-trifluoromethyl-benzylamide] | > 1000 | > 1000 |  |  |
| CCOc1ccc(S(=O)(=O)N2CCN(C(C)=O)C[C@@H]2C(=O)NCc2ccc(C(C)C)cc2)cc1 [Example 192, (R)-4-acetyl-1-(4-ethoxy-benzenesulfonyl)-piperazine-2-carboxylic acid 4-isopropyl-benzylamide] | 100 to 1000 | 100 to 1000 |  |  |
| Cc1nncc2sc(N3CCN(S(=O)(=O)c4ccc(OC(F)(F)F)cc4)[C@@H](C(=O)NCc4ccc(OC(F)(F)F)cc4)C3)nc12 [Example 917, (R)-4-(4-methyl-thiazolo[4,5-d]pyridazin-2-yl)-1-(4-trifluoromethoxy-benzenesulfonyl)-piperazine-2-carboxylic acid 4-trifluoromethoxy-benzylamide] |  |  | < 100 | < 100 |
| CC(=O)c1ncc2sc(N3CCN(S(=O)(=O)c4ccc(OC(F)(F)F)cc4)[C@@H](C(=O)NCc4ccc(OC(F)(F)F)cc4)C3)nc2n1 [Example 1048, (R)-4-(5-acetyl-thiazolo[4,5-d]pyrimidin-2-yl)-1-(4-trifluoromethoxy-benzenesulfonyl)-piperazine-2-carboxylic acid 4-trifluoromethoxy-benzylamide] |  |  | < 100 | < 100 |
| CCC(F)(F)c1ccc(CNC(=O)[C@H]2CN(C(=O)Cc3cc(C)no3)CCN2S(=O)(=O)c2ccc(OC(F)(F)F)cc2)cc1 [Example 480, (R)-4-[2-(3-methyl-isoxazol-5-yl)-acetyl]-1-(4-trifluoromethoxy-benzenesulfonyl)-piperazine-2-carboxylic acid 4-(1,1-difluoro-propyl)-benzylamide] | < 100 | < 100 |  |  |
| CC(=O)N1CCN(S(=O)(=O)c2ccc(C3CCCCC3)cc2)C(C(=O)NCc2ccc(C(F)(F)F)cc2)C1 (stereo not drawn) [Example 167, 4-acetyl-1-(4-cyclohexyl-benzenesulfonyl)-piperazine-2-carboxylic acid 4-trifluoromethyl-benzylamide] | > 1000 | > 1000 |  |  |
| CN(C)c1ccc(CNC(=O)C2CN(C(=O)CNC(=O)OC(C)(C)C)CCN2S(=O)(=O)c2ccc(I)cc2)cc1 (stereo not drawn) [Example 86, {2-[3-(4-dimethylamino-benzylcarbamoyl)-4-(4-iodo-benzenesulfonyl)-piperazin-1-yl]-2-oxo-ethyl}-carbamic acid tert-butyl ester] | > 1000 | > 1000 |  |  |
| COc1ccc(CNC(=O)[C@H]2CN(C(C)=O)CCN2S(=O)(=O)c2ccc(OC(F)(F)F)cc2)cc1O [Example 645, (R)-4-acetyl-1-(4-trifluoromethoxy-benzenesulfonyl)-piperazine-2-carboxylic acid 3-hydroxy-4-methoxy-benzylamide] | > 1000 | > 1000 |  |  |
| Cc1ncc2sc(N3CCN(S(=O)(=O)c4ccc(OC(F)(F)F)cc4)[C@@H](C(=O)NCc4ccc(OC(F)F)cc4)C3)nc2n1 [Example 942, (R)-4-(5-methyl-thiazolo[4,5-d]pyrimidin-2-yl)-1-(4-trifluoromethoxy-benzenesulfonyl)-piperazine-2-carboxylic acid 4-difluoromethoxy-benzylamide] |  |  | < 100 | < 100 |
| CCC(F)(F)c1ccc(CNC(=O)[C@H]2CN(c3cnc4cncnc4n3)CCN2S(=O)(=O)c2ccc(Cl)cc2)cc1 [Example 697, (R)-1-(4-chloro-benzenesulfonyl)-4-pteridin-7-yl-piperazine-2-carboxylic acid 4-(1,1-difluoro-propyl)-benzylamide] |  |  | < 100 | < 100 |
| O=C(NCc1ccc(OC(F)(F)F)cc1)[C@H]1CN(c2nc3cn[nH]c(=O)c3s2)CCN1S(=O)(=O)c1ccc(C(F)(F)F)cc1 [Example 877, (R)-4-(7-oxo-6,7-dihydro-thiazolo[4,5-d]pyridazin-2-yl)-1-(4-trifluoromethyl-benzenesulfonyl)-piperazine-2-carboxylic acid 4-trifluoromethoxy-benzylamide] |  |  | < 100 | < 100 |
| CC(=O)N1CCN(S(=O)(=O)c2ccc3c(c2)CCO3)C(C(=O)NCc2ccc(C(F)(F)F)cc2)C1 (stereo not drawn) [Example 48, 4-acetyl-1-(2,3-dihydro-benzofuran-5-sulfonyl)-piperazine-2-carboxylic acid 4-trifluoromethyl-benzylamide] | > 1000 | > 1000 |  |  |
| CCCc1ccc(CNC(=O)[C@H]2CN(C(C)=O)CCN2S(=O)(=O)c2ccc(OC(F)(F)F)cc2)cc1O [Example 624, (R)-4-acetyl-1-(4-trifluoromethoxy-benzenesulfonyl)-piperazine-2-carboxylic acid 3-hydroxy-4-propyl-benzylamide] | 100 to 1000 | > 1000 |  |  |

— patent US8017612B2, “Piperazine compound and use thereof as a HCV polymerase inhibitor” (priority 2006, dated 2011)
